Among the data in paper PMC10944868, “Synthesis, biological and computational evaluation of novel cyanomethyl vinyl ether derivatives” (Frontiers in Pharmacology, 2024) are IC50 values, retold here.

Common to all, as to format: cell-based
Assay [1] relates to BT20 (human breast carcinoma). Description: Cytotoxicity assay (CCK8), BT20. The following applies: BT20 cells. The procedure:
(§1) Cells were cultured according to the supplier´s instructions (ATCC technologies, A-549 (CCL-185), BT-20 (HTB-19), SKOV3 (HTB-77), HCT116 (CCL-247), MRC5 (CCL-171). Cells were seeded in 96-well plates at a density of 2–2.5 × 10^3 cells per well and incubated overnight in 0.1 mL of media supplied with 10% Fetal Bovine Serum (Lonza) in 5% CO2 incubator at 37°C. On day 2, drugs were added and samples were incubated for 48 h. After treatment, 10 µL of cell counting kit-8 was added into each well for additional 2 h incubation at 37°C. The absorbance of each well was determined by an Automatic Elisa Reader System at 450 nm wavelength.

Assay [2] relates to MRC-5 (non-malignant lung fibroblasts). Description: Cytotoxicity assay (CCK8), MRC5. The following applies: Homo sapiens, MRC5 non-cancerous cells, 48 h. The protocol:
as §1

The subject of assay [3] is SKOV3 (human ovarian carcinoma). Description: Cytotoxicity assay (CCK8), SKOV3. Conditions: SK-OV-3, SKOV3 cells, 48 h. The procedure:
as §1

The subject of assay [4] is A549 (carcinomic human alveolar basal epithelial cells). Description: Cytotoxicity assay (CCK8), A549. The following applies: 48 h. The procedure: as §1
Assay [5] concerns HCT-116 (human colorectal carcinoma). Description: Cytotoxicity assay (CCK8), HCT116. Conditions: HCT116 cells, 48 h. The procedure:
as §1

Bounds are passed on as bounds.

Turning to `COC(=O)/C=C\OC(C#N)c1ccccc1` (stereo not shown) [Compound 5Z], the IC50 in assay [1] (Homo sapiens, BT-20, 48 h) was 19.9 ± 3.42 µM; in assay [2] it was over 50 µM; in assay [3], 29.8 ± 2.09 µM; in assay [4], over 50 µM; in assay [5], over 50 µM.
For `CC(C)OC(=O)/C=C/OC(C#N)c1ccccc1` (stereo not shown) [Compound 4E, Isoropyl (E)-3-(cyano(phenyl)methoxy)acrylate], the IC50 in assay [2], in assay [3], in assay [4] and in assay [5] was over 50 µM in each case.
Turning to `COC(=O)/C=C/OC(C#N)c1ccc(C)cc1` (stereo not shown) [Compound 9E], the IC50 is 4.98 ± 2.77 µM in assay [1] (Homo sapiens, BT-20, 48 h); over 50 µM in assay [2]; 8.08 ± 2.08 µM in assay [3]; 21.4 ± 0.83 µM in assay [4]; over 50 µM in assay [5].
In the case of `CCC(C#N)O/C=C\C(=O)OC` (stereo not shown) [Compound 1Z], the IC50 in assay [1] (Homo sapiens, BT-20, 48 h) was over 50 µM; in assay [2] it was over 50 µM; in assay [3] it was over 50 µM; in assay [4], over 50 µM; in assay [5], over 50 µM.
For the compound `COC(=O)/C=C/OC(C#N)c1ccc(C(F)(F)F)cc1` (stereo not shown) [Compound 7E], the IC50 is 10 ± 2.17 µM in assay [1] (Homo sapiens, BT-20, 48 h); over 50 µM in assay [2]; 2.62 ± 0.53 µM in assay [3]; 29.3 ± 1.1 µM in assay [4]; over 50 µM in assay [5].
For `COC(=O)/C=C\OC(C#N)c1ccc(C)cc1` (stereo not shown) [Compound 9Z], the half-inhibitory concentration (IC50) is 20.2 ± 3.78 µM in assay [1] (Homo sapiens, BT-20, 48 h); over 50 µM in assay [2]; over 50 µM in assay [3]; over 50 µM in assay [4]; over 50 µM in assay [5].
Consider `COC(=O)/C=C/OC(C#N)c1ccccc1` (stereo not shown) [Compound 5E], for which the IC50 in assay [1] (Homo sapiens, BT-20, 48 h) was 8.31 ± 1.26 µM; in assay [2], over 50 µM; in assay [3], 3.84 ± 1.56 µM; in assay [4] it was 18.9 ± 1.2 µM; in assay [5] it was over 50 µM.
Consider `COC(=O)/C=C/OC(C#N)c1ccc(OC)cc1` (stereo not shown) [Compound 6E], for which the half-maximal inhibitory concentration (IC50) in assay [1] (Homo sapiens, BT-20, 48 h) is 27.8 ± 5.31 µM; in assay [2] it was over 50 µM; in assay [3] it was 12.4 ± 1.18 µM; in assay [4], over 50 µM; in assay [5], over 50 µM.
`CC(C)OC(=O)/C=C\OC(C#N)c1ccccc1` (stereo not shown) [Compound 4Z, Isoropyl (Z)-3-(cyano(phenyl)methoxy)acrylate]: the IC50 in assay [2], in assay [3], in assay [4] and in assay [5] was over 50 µM throughout.
For `COC(=O)/C=C/OC(C#N)c1ccc(F)cc1` (stereo not shown) [Compound 8E], the IC50 in assay [2], in assay [3], in assay [4] and in assay [5] was over 50 µM in each case.
Take `CCC(C#N)O/C=C/C(=O)OC` (stereo not shown) [Compound 1E]: the IC50 in assay [1] (Homo sapiens, BT-20, 48 h) was 7.07 ± 1.28 µM; in assay [2] it was over 50 µM; in assay [3], 2.92 ± 0.28 µM; in assay [4], over 50 µM; in assay [5] it was over 50 µM.
As to `COC(=O)/C=C\OC(C#N)c1ccc(OC)cc1` (stereo not shown) [Compound 6Z], the IC50 was 12.6 ± 1.76 µM in assay [1] (Homo sapiens, BT-20, 48 h); over 50 µM in assay [2]; 31.3 ± 4.42 µM in assay [3]; over 50 µM in assay [4]; over 50 µM in assay [5].
Regarding `CCCCCCC(C#N)O/C=C\C(=O)OC` (stereo not shown) [Compound 2Z], the IC50 in assay [1] (Homo sapiens, BT-20, 48 h) is 17.3 ± 3.44 µM; in assay [2], over 50 µM; in assay [3], over 50 µM; in assay [4], over 50 µM; in assay [5] it was over 50 µM.
`COC(=O)/C=C\OC(C#N)c1cccs1` (stereo not shown) [Compound 10Z]: the IC50 in assay [2], in assay [3], in assay [4] and in assay [5] was over 50 µM in each case.
Turning to `CCCOC(=O)/C=C\OC(C#N)c1ccccc1` (stereo not shown) [Compound 3Z, Propyl (Z)-3-(cyano(phenyl)methoxy)acrylate], the IC50 in assay [2], in assay [3], in assay [4] and in assay [5] was over 50 µM throughout.
Regarding `COC(=O)/C=C/OC(C#N)c1cc2ccccc2c2ccccc12` (stereo not shown) [Compound 12E], the concentration for half-maximal inhibition (IC50) was found to be 7 ± 1.96 µM in assay [1] (48 h); 9.89 ± 0.25 µM in assay [1] (Homo sapiens, BT-20, 48 h); 14.4 ± 0.86 µM in assay [2]; 7.35 ± 1.42 µM in assay [3]; 9.89 ± 0.25 µM in assay [4]; 16.1 ± 1.2 µM in assay [5].
Turning to `COC(=O)/C=C\OC(C#N)c1cc2ccccc2c2ccccc12` (stereo not shown) [Compound 12Z], the IC50 was 11.9 ± 1.1 µM in assay [1] (Homo sapiens, BT-20, 48 h); over 50 µM in assay [2]; 11.9 ± 1.88 µM in assay [3]; over 50 µM in assay [4]; over 50 µM in assay [5].
For the compound `COC(=O)/C=C/OC(C#N)c1cccs1` (stereo not shown) [Compound 10E], the concentration for half-maximal inhibition (IC50) in assay [2], in assay [3], in assay [4] and in assay [5] was over 50 µM throughout.
As for `CCCCCCC(C#N)O/C=C/C(=O)OC` (stereo not shown) [Compound 2E], the 50% inhibitory concentration (IC50) in assay [1] (Homo sapiens, BT-20, 48 h) was 15.8 ± 2.9 µM; in assay [2], over 50 µM; in assay [3], 41.6 ± 2.46 µM; in assay [4], over 50 µM; in assay [5], over 50 µM.
Turning to `COC(=O)/C=C\OC(C#N)c1ccc(F)cc1` (stereo not shown) [Compound 8Z], the IC50 in assay [2], in assay [3], in assay [4] and in assay [5] was over 50 µM in each case.
In the case of `COC(=O)/C=C\OC(C#N)c1ccc(C(F)(F)F)cc1` (stereo not shown) [Compound 7Z], the IC50 in assay [1] (Homo sapiens, BT-20, 48 h) was over 50 µM; in assay [2], over 50 µM; in assay [3] it was over 50 µM; in assay [4], over 50 µM; in assay [5], over 50 µM.
With `CCCOC(=O)/C=C/OC(C#N)c1ccccc1` (stereo not shown) [Compound 3E, Propyl (E)-3-(cyano(phenyl)methoxy)acrylate], the IC50 in assay [2], in assay [3], in assay [4] and in assay [5] was over 50 µM throughout.
